Each molecule was assayed against T1, PDE4B2 (Homo sapiens, UniProt Q07343) (assay: Inhibition of PDE4 activity: PDE4B2 [3H]cAMP SPA enzyme assay). Conditions: recombinant PDE4B2 (SF21 cell supernatant), modified SPA test, 0.5 μM cAMP, 15 min at 37° C.; read-out: Inhibition of the PDE4 activity, −log IC50 (converted).
T1 construct: made in house; host or cells: SF21 insect cells (baculovirus; virus prepared in SF9 cells)
Type: biochemical
Protocol: The PDE4B2 (GB no. M97515) was a gift of Prof. M. Conti (Stanford University, USA). It was amplified from the original plasmid (pCMV5) via PCR with primers Rb9 (5′-[…]-3′) and Rb10 (5′-[…]-3′) and cloned into the pCR-Bac vector (Invitrogen, Groningen, NL).
The recombinant baculovirus was prepared by means of homologous recombination in SF9 insect cells.
The expression plasmid was cotransfected with Bac-N-Blue (Invitrogen, Groningen, NL) or Baculo-Gold DNA (Pharmingen, Hamburg) using a standard protocol (Pharmingen, Hamburg). Wt virus-free recombinant virus supernatant was selected using plaque assay methods. After that, high-titre virus supernatant was prepared by amplifying 3 times. PDE was expressed in SF21 cells by infecting 2×10^6 cells/ml with an MOI (multiplicity of infection) between 1 and 10 in serum-free SF900 medium (Life Technologies, Paisley, UK). The cells were cultured at 28° C. for 48-72 hours, after which they were pelleted for 5-10 min at 1000 g and 4° C.
The SF21 insect cells were resuspended, at a concentration of approx. 10^7 cells/ml, in ice-cold (4° C.) homogenization buffer (20 mM Tris, pH 8.2, containing the following additions: 140 mM NaCl, 3.8 mM KCl, 1 mM EGTA, 1 mM MgCl2, 10 mM β-mercaptoethanol, 2 mM benzamidine, 0.4 mM Pefablock, 10 μM leupeptin, 10 μM pepstatin A, 5 μM trypsin inhibitor) and disrupted by ultrasonication. The homogenate was then centrifuged for 10 min at 1000×g and the supernatant was stored at −80° C. until subsequent use (see below). The protein content was determined by the Bradford method (BioRad, Munich) using BSA as the standard.
PDE4B2 activity is inhibited by the said compounds in a modified SPA (scintillation proximity assay) test, supplied by Amersham Biosciences (see procedural instructions “phosphodiesterase [3H]cAMP SPA enzyme assay, code TRKQ 7090”), carried out in 96-well microtitre plates (MTP's). The test volume is 100 μl and contains 20 mM Tris buffer (pH 7.4), 0.1 mg of BSA (bovine serum albumin)/ml, 5 mM Mg^2+, 0.5 μM cAMP (including about 50,000 cpm of [3H]cAMP), 1 μl of the respective substance dilution in DMSO and sufficient recombinant PDE (1000×g supernatant, see above) to ensure that 10-20% of the cAMP is converted under the said experimental conditions. […] After a preincubation of 5 min at 37° C., the reaction is started by adding the substrate (cAMP) and the assay is incubated for a further 15 min; after that, it is stopped by adding SPA beads (50 μl). In accordance with the manufacturer's instructions, the SPA beads had previously been resuspended in water, but were then diluted 1:3 (v/v) in water; the diluted solution also contains 3 mM IBMX to ensure a complete PDE activity stop. After the beads have been sedimented (>30 min), the MTP's are analyzed in commercially available […]. The corresponding IC50 values of the compounds for the inhibition of PDE activity are determined from the concentration-effect curves by means of non-linear regression.

T1 sequence (Q07343 1-564 isoform Q07343-2): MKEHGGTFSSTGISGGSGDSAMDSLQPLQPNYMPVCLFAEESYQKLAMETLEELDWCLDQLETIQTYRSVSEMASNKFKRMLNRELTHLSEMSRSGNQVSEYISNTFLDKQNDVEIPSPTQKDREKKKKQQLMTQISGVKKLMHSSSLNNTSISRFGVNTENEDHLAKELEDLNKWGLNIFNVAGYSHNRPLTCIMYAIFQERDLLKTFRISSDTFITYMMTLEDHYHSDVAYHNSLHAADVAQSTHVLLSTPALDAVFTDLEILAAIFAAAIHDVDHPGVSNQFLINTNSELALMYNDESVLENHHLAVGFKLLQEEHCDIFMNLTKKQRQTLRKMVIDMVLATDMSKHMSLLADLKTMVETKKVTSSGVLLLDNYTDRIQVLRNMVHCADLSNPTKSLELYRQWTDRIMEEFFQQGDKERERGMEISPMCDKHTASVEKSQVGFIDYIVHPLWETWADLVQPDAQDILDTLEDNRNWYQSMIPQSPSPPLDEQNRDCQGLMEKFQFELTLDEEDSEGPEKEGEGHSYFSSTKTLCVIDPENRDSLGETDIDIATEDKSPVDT

Compound | IC50
COc1cc2c(cc1OC)C1CC(O)CCC1N=C2c1ccc(C(=O)N2CCN(CC(=O)N(C)C)CC2)cc1 [Compound 16, 2-(4-{1-[4-((2R,4aR,10bR)-2-Hydroxy-8,9-dimethoxy-1,2,3,4,4a,10b-hexahydro-phenanthridin-6-yiyphenyl]-methanoyl}-piperazin-1-yl)-N,N-dimethyl-acetamide] | 0.955 to 8.71 nM
COc1cc2c(cc1OC)[C@H]1C[C@H](O)CC[C@H]1N=C2c1ccc(C(=O)N2CCN(CC(=O)N3CCOCC3)CC2)cc1 (racemic) [Compound 17, 2-(4-{1-[4-((2RS,4aRS,10bRS)-2-Hydroxy-8,9-dimethoxy-1,2,3,4,4a,10b-hexahydro-phenanthridin-6-yl)-phenyl]-methanoyl}-piperazin-1-yl)-1-morpholin-4-yl-ethanone] | 0.955 to 8.71 nM
COc1cc2c(cc1OC(F)F)[C@H]1C[C@H](O)CC[C@H]1N=C2c1ccc(C(=O)N2CCN(c3ccncc3)CC2)cc1 (racemic) [Compound 30, 1-{4-[(2RS,4aRS,10bRS)-9-(1,1-Difluoro-methoxy)-2-hydroxy-8-methoxy-1,2,3,4,4a,10b-hexahydro-phenanthridin-6-yl]-phenyl}-1-(4-pyridin-4-yl-piperazin-1-yl)-methanone] | 0.955 to 8.71 nM
COc1cc2c(cc1OC(F)F)[C@H]1C[C@H](O)CC[C@H]1N=C2c1ccc(C(=O)NCCCN2CCOCC2)cc1 (racemic) [Compound 28, 4-[(2RS,4aRS,10bRS)-9-(1,1-Difluoro-methoxy)-2-hydroxy-8-methoxy-1,2,3,4,4a,10b-hexahydro-phenanthridin-6-yl]-N-(3-morpholin-4-yl-propyl)-benzamide] | 0.955 to 8.71 nM
COc1cc2c(cc1OC(F)F)[C@H]1C[C@H](O)CC[C@H]1N=C2c1ccc(C(=O)N2CCCC2)cc1 (racemic) [Compound 33, 1-{4-[(2RS,4aRS,10bRS)-9-(1,1-Difluoro-methoxy)-2-hydroxy-8-methoxy-1,2,3,4,4a,10b-hexahydro-phenanthridin-6-yl]-phenyl}-1-pyrrolidin-1-yl-methanone] | 0.955 to 8.71 nM
COc1cc2c(cc1OC)[C@H]1C[C@H](O)CC[C@H]1N=C2c1ccc(C(=O)N(C)C)cc1 (racemic) [Compound 14, 4-((2RS,4aRS,10bRS)-2-Hydroxy-8,9-dimethoxy-1,2,3,4,4a,10b-hexahydro-phenanthridin-6-yl)-N,N-dimethyl-benzamide] | 0.955 to 8.71 nM
COc1cc2c(cc1OC)[C@H]1C[C@H](O)CC[C@H]1N=C2c1ccc(C(=O)NC2CC2)cc1 (racemic) [Compound 11, N-Cyclopropyl-4-((2RS,4aRS,10bRS)-2-hydroxy-8,9-dimethoxy-1,2,3,4,4a,10b-hexahydro-phenanthridin-6-yl)-benzamide] | 0.955 to 8.71 nM
COc1cc2c(cc1OC)[C@H]1C[C@H](O)CC[C@H]1N=C2c1ccc(C(=O)N2CCN(CC(=O)Nc3ccccn3)CC2)cc1 (racemic) [Compound 15, 2-(4-{1-[4-((2RS,4aRS,10bRS)-2-Hydroxy-8,9-dimethoxy-1,2,3,4,4a,10b-hexahydro-phenanthridin-6-yl)-phenyl]-methanoyl}-piperazin-1-yl)-N-pyridin-2-yl-acetamide] | 0.955 to 8.71 nM
COc1ccc(NC(=O)c2ccc(C3=N[C@@H]4CC[C@@H](O)C[C@@H]4c4cc(OC)c(OC)cc43)cc2)c(OC)n1 (racemic) [Compound 23, N-(2,6-Dimethoxy-pyridin-3-yl)-4-((2RS,4aRS,10bRS)-2-hydroxy-8,9-dimethoxy-1,2,3,4,4a,10b-hexahydro-phenanthridin-6-yl)benzamide] | 0.955 to 8.71 nM
COc1cc2c(cc1OC)[C@H]1C[C@H](O)CC[C@H]1N=C2c1ccc(C(=O)NCCc2ccccn2)cc1 (racemic) [Compound 7, 4-((2RS,4aRS,10bRS)-2-Hydroxy-8,9-dimethoxy-1,2,3,4,4a,10b-hexahydro-phenanthridin-6-yl)-N-(2-pyridin-2-yl-ethyl)-benzamide] | 0.955 to 8.71 nM
COc1cc2c(cc1OC(F)F)C1CC(O)CCC1N=C2c1ccc(C(=O)N2CCN(CC(=O)N(C)C)CC2)cc1 (stereo not drawn) [Compound 34, 2-[4-(1-{4-[(2RS,4aRS,10bRS)-9-(1,1-Difluoro-methoxy)-2-hydroxy-8-methoxy-1,2,3,4,4a,10bhexahydro-phenanthridin-6-yl]-phenyl}-methanoyl)-piperazin-1-yl]-N,N-dimethyl-acetamide] | 0.955 to 8.71 nM
COc1cc2c(cc1OC)[C@H]1C[C@H](O)CC[C@H]1N=C2c1ccc(C(=O)N2CCN(CC(=O)Nc3cccnc3)CC2)cc1 (racemic) [Compound 13, 2-(4-{1-[4-((2RS,4aRS,10bRS)-2-Hydroxy-8,9-dimethoxy-1,2,3,4,4a,10b-hexahydro-phenanthridin-6-yl)phenyl]methanoyl}-piperazin-1-yl)-N-pyridin-3-yl-acetamide] | 0.955 to 8.71 nM
COc1cc2c(cc1OC)[C@H]1C[C@H](O)CC[C@H]1N=C2c1ccc(C(=O)N2CCOCC2)cc1 (racemic) [Compound 19, 1-[4-((2RS,4aRS,10bRS)-2-Hydroxy-8,9-dimethoxy-1,2,3,4,4a,10b-hexahydro-phenanthridin-6-yl)-phenyl]-1-morpholin-4-yl-methanone] | 0.955 to 8.71 nM
COc1cc2c(cc1OC(F)F)[C@H]1C[C@H](O)CC[C@H]1N=C2c1ccc(C(=O)NC2CC2)cc1 (racemic) [Compound 25, N-Cyclopropyl-4-[(2RS,4aRS,10bRS)-9-(1,1-difluoro-methoxy)-2-hydroxy8-methoxy-1,2,3,4,4a,10b-hexahydro-phenanthridin-6-yl]-benzamide] | 0.955 to 8.71 nM
COc1cc2c(cc1OC)[C@H]1C[C@H](O)CC[C@H]1N=C2c1ccc(C(=O)NCCc2cccnc2)cc1 (racemic) [Compound 21, 4-((2RS,4aRS,10bRS)-2-Hydroxy-8,9-dimethoxy-1,2,3,4,4a,10b-hexahydro-phenanthridin-6-yl)-N-(2-pyridin-3-yl-ethyl)-benzamide] | 0.955 to 8.71 nM
COc1cc2c(cc1OC)[C@H]1C[C@H](O)CC[C@H]1N=C2c1ccc(C(=O)NCCc2ccncc2)cc1 (racemic) [Compound 20, 4-((2RS,4aRS,10bRS)-2-Hydroxy-8,9-dimethoxy-1,2,3,4,4a,10b-hexahydro-phenanthridin-6-yl)-N-(2-pyridin-4-yl-ethyl)-benzamide] | 0.955 to 8.71 nM
COc1cc2c(cc1OC(F)F)[C@H]1C[C@H](O)CC[C@H]1N=C2c1ccc(C(=O)N2CCN(CC(=O)Nc3ccccn3)CC2)cc1 (racemic) [Compound 31, 2-[4(1-{4-[(2RS,4aRS,10bRS)-9-(1,1-Difluoro-methoxy)-2-hydroxy-8-methoxy-1,2,3,4,4a,10b-hexahydro-phenanthridin-6-yl]-phenyl}-methanoyl)-piperazin-1-yl]-N-pyridin-2-yl-acetamide] | 0.955 to 8.71 nM
COc1cc2c(cc1OC)[C@H]1C[C@H](O)CC[C@H]1N=C2c1ccc(C(=O)NN2CCN(C)CC2)cc1 (racemic) [Compound 3, 4-((2RS,4aRS,10bRS)-2-Hydroxy-8,9-dimethoxy-1,2,3,4,4a,10b-hexahydro-phenanthridin-6-yl)-N-(4-methyl-piperazin-1-yl)benzamide] | 0.955 to 8.71 nM
COc1cc2c(cc1OC)[C@H]1C[C@H](O)CC[C@H]1N=C2c1ccc(C(=O)N2CCN(CC(=O)N3CCCC3)CC2)cc1 (racemic) [Compound 12, 2-(4-{1-[4-((2RS,4aRS,10bRS)-2-Hydroxy-8,9-dimethoxy-1,2,3,4,4a,10b-hexahydro-phenanthridin-6-yl)-phenyl]-methanoyl}-piperazin-1-yl)-1-pyrrolidin-1-yl-ethanone] | 0.955 to 8.71 nM
COc1cc2c(cc1OC)C1CC(O)CCC1N=C2c1ccc(C(=O)N2CCN(c3ccccn3)CC2)cc1 (stereo not drawn) [Compound 8] | 0.955 to 8.71 nM
COC(=O)CN(C)C(=O)c1ccc(C2=NC3CCC(O)CC3c3cc(OC)c(OC)cc32)cc1 (stereo not drawn) [Compound 5] | 0.955 to 8.71 nM
